Reference: PMC9656482, “In Vitro and In Vivo Biological Activity of Ruthenium 1,10-Phenanthroline-5,6-dione Arene Complexes” (International Journal of Molecular Sciences, 2022)
“And” between values parts separate entries of the source, which are not always exact repeats. Identical values can stand only once.

Columns and labels:
[1] = test system: A2780 ovarian carcinoma cell line; experiment: MTS antiproliferative assay, A2780; format: cell-based, human
Method: The cytotoxic potential of the complexes was evaluated by assessing their viability using the 3-(4,5-dimethylthiazol-2-yl)-5-(3-carboxymethoxyphenyl)-2-(4-sulfophenyl)-2H tetrazolium, inner salt (MTS) colorimetric assay in three tumor cell lines—ovarian carcinoma, A2780, colorectal carcinoma, HCT116, and colorectal carcinoma resistant to doxorubicin, HCT116-Dox and in normal human primary dermal fibroblasts (Figure 1 and Figure S7).
Normal dermal human fibroblasts, colorectal carcinoma cell line HCT116 and ovarian carcinoma cell line A2780 were acquired from ATCC (Manassas, VA, USA). […] Fibroblasts and HCT116 cells were cultured in Dulbecco’s modified Eagle medium (DMEM, Thermo Fisher Scientific) and A2780 cell line was cultured on Roswell Park Memorial institute 1640 (RPMI-1640, Thermo Fisher Scientific). Both media were supplemented with 10% (v/v) fetal bovine serum (FBS, Thermo Fisher Scientific) and a mixture of 100 U/mL penicillin and 100 mg/mL streptomycin. The supplemented media are referred to from this point on as DMEM or RPMI for simplicity. […] All experiments underwent at 37 °C, 5% (v/v) CO2 and 99% (v/v) humidity in the dark.
Cells were seeded in a 96-well plate in a density of 7500 cells/well, and after 24 h was submitted to a concentration range between 0.1–50 µM of complexes JHOR10 and JHOR11. DMSO with a 0.1% (v/v) concentration was used as vector control and cisplatin was used as positive control in all replicates. After 48 h incubation, cellular viability was inferred with the Cell Titer 96® Aqueous One solution cell proliferation assay (Promega, Madison, WI, USA) according to the manufacturer’s instructions and procedures previously described [18, 40]. The absorbance of the produced Formazan was quantified with a Tecan microplate reader, Infinite M200 (Tecan, Mannedorf, Switzerland) and the analysis of the dose–response curves to determine the relative IC50 was performed with GraphPad Prism 8.2.1 software (GraphPad Software, La Jolla, CA, USA).

A2780 cells [2] = experiment: Mitochondrial membrane potential (JC-1); format: cell-based, human; conditions: A2780, 48 h, IC50 of JHOR11, relative to vehicle control
Description: This dye accumulates in the mitochondria of cells, presenting red fluorescence, characteristic of the aggregated form (JC-1 aggregated), in healthy cells, and green fluorescence, characteristic of monomer form (JC-1 monomer), when the mitochondrial membrane is compromised.
The mitochondrial potential was quantified using the JC-1 mitochondrial membrane potential assay kit (Abnova, Taipé, Taiwan) according to manufacturer’s instructions and as previously described. Briefly, 2 × 10^5 A2780 cells were seeded on each well of a 6-well plate and incubated for 48 h with IC50 JHOR11, 0.1% (v/v) DMSO or 3.5 µM cisplatin. Cells with red (JC-1 aggregated) and green (JC-1 monomer) fluorescence were quantified with an Attune acoustic focusing flow cytometer and respective software (Thermo Fisher Scientific), and fluorescence ratios normalized to control samples incubated with DMSO.

A2780 cells [3] = experiment: Cell cycle analysis (PI staining); format: cell-based, human; conditions: A2780 synchronized with thymidine; IC50 of JHOR11 or 0.1 µM doxorubicin; 5-32 h, relative to DMSO
Method: To understand if the complex also presents a cytostatic effect, the cell cycle of A2780 cells was analyzed by DNA staining with PI, after double synchronization with thymidine at the S phase.
The cell cycle analysis was performed by DNA staining with PI according to procedures previously described with few modifications. A2780 cells were seeded in 6-well plates in a cell density of 4 × 10^5 cells/well and the cell cycle was synchronized in the S-phase by double blocking with 2 mM thymidine. […] After 5 h, 9 h, 24 h or 32 h, cells were detached, fixed with 80% (v/v) ethanol, incubated with 50 mg/mL RNase A (NZYtech, Lisbon, Portugal) and stained with […] PI (Thermo Fisher Scientific). The fluorescence of each sample was analyzed in an Attune acoustic focusing cytometer and respective software (Thermo Fisher Scientific).

zebrafish embryos = experiment: In vivo toxicity assessment using zebrafish embryos
Method: The toxicity of the JHOR10 and JHOR11 compounds was assayed in zebrafish embryos. There was a NOEC (No Observed Effect Concentration) in the case of JHOR11 of 80 µM (Table 2). The NOEC is the concentration used for the xenotransplantation experiments in order not to affect the normal development of the embryos and being able, in parallel, to assay the effect of the compound over the injected cells. Apart from that, the mortality assayed in the toxicity assays supports the concentration obtained in the NOEC, with a low mortality of the embryos when they are incubated with JHOR11 (Figure 13 and Figure 14).
Wild-type zebrafish were housed in 30 L tanks within a water recirculation system under controlled physicochemical conditions: pH 7–7.5, temperature 26 ± 2 °C, conductivity 600 µS/cm and light/dark photoperiod of 14/10 h. The adult fish were fed Gemma Micro 300 (Skretting) twice a day. Fertilized eggs were collected after natural spawning and stored in Petri dishes for 48 h until being injected, or 72 h until being exposed to different concentrations of ruthenium compounds.
At 72 h post-fertilization (hpf), the embryos were exposed to increasing concentrations of two ruthenium compounds to determine toxicological estimates: LC50 with no observed effect concentration (NOEC) and lowest observed effect concentration (LOEC). The acute toxicity assessment of the compounds was performed following the standards of the OECD Test Guideline Program.
The embryos were individually transferred to 96-well plates containing 100 µL of each desired concentration. The plates were then placed in an incubator with a temperature of 26 °C and a photoperiod of 14 h of light and 10 h of darkness. The duration of the experiment was 96 h, and observations were made every 24 h recording the four lethal effects indicated by the OECD: embryo coagulation, absence of somite formation, absence of separation of the yolk tail and absence of heartbeat. All compounds were dissolved with dimethylsulfoxide (DMSO) with a final concentration of 1%. In each test, seven concentrations were analyzed for each compound, these being: JHOR10 (10, 20, 30, 40, 50, 55, 60 µM) and JHOR11 (50, 80, 100, 140, 200, 300, 400 µM).
For the evaluation of toxicity, the mortality data were analyzed by probit analysis with the ToxRat software (ToxRat Solutions. 2003. ToxRat®. Software for the statistical analysis of biotests. Alsdorf, Germany).

[4] = test system: BAX and BCL-2 protein expression in A2780 cells; conditions: A2780, 48 h, IC50 of JHOR11, normalized to DMSO control = 1
Method: The ratio between BAX and BCL-2 protein expression indicates the level of susceptibility of the cell to the intrinsic apoptotic pathway [26, 27, 28]. The BAX and BCL-2 protein expression was quantified by Western blot analysis to calculate the apoptotic index of cells after 48 h incubation with IC50 of JHOR11, using the quantification of β-actin as the internal control and 0.1% (v/v) DMSO as the vehicle control (Figure 4).
The apoptotic index was determined by quantification of BAX and BCL-2 protein expression by Western blot, as previously described [18]. Briefly, 4 × 10^6 cells were seeded on T-flasks with 25 cm^2 for 24 h and then the medium was replaced by a fresh medium supplemented with IC50 JHOR11, 0.1% (v/v) DMSO (vector control) or 0.1 µM doxorubicin (positive control). After 48 h incubation, cells were detached with a cell scraper and BAX, BCL-2 and β-actin proteins were quantified in a PVDF membrane [18]. The apoptotic ratio BAX/BCL-2 was calculated after normalization of the BAX and BCL-2 band intensity with respective β-actin band intensity and to the values of the DMSO-treated sample, measured using ImageJ2 software [41].

[5] = zebrafish embryos exposed from 72 hpf, 96 h

Cc1ccc(C(C)C)cc1.F[P-](F)(F)(F)(F)F.O=C1C(=O)c2cccnc2-c2ncccc21.[Cl][Ru+] [JHOR11]
IC50 ([1]; 48 h incubation, MTS, read-out: Relative IC50, A2780): 1.2 ± 0.1 µM
selective index in A2780 ([1]; relative to fibroblasts): 37.4
JC-1 monomer/aggregate fluorescence ratio (A2780 cells [2]): decrease in the monomer/aggregate fluorescence ratio (but with no statistical significance)
cell cycle effect (A2780 cells [3]): slight increase in cells in G2/M phase
LC50 (zebrafish embryos; [5]): 225 µM
NOEC (No Observed Effect Concentration) (zebrafish embryos; [5]): 80 µM and 80.00 µM
mortality of the embryos (zebrafish embryos; zebrafish embryos incubated with compound): low mortality
apoptotic index (BAX/BCL-2 ratio) [4]: lower than 1
